{"source": "patent US9987242B2", "about": "“Treatment of Levodopa-induced Dyskinesias” (NORTHWESTERN UNIVERSITY, priority 2015, dated 2018)", "key": {"iSPN synapses": {"system": "iSPN synapses", "assay": "Pre-post pairing protocol in iSPNs from 6-OHDA lesioned, L-DOPA treated mice", "details": "6-OHDA lesioned mice shortly after L-DOPA treatment"}, "forelimb use asymmetry": {"system": "forelimb use asymmetry", "assay": "Forelimb-use asymmetry test (cylinder test) in 6-OHDA lesioned mice", "format": "in vivo", "details": "for forelimb use asymmetry: n=9", "experimental": "(§1) After LID induction, mice were treated with either L-DOPA or L-DOPA and VU152100 (20-120 mg/kg, i.p.) on days 6-8; VU152100 is an M4R PAM with improved pharmacokinetic properties than VU10010."}, "[1]": {"system": "dSPN glutamatergic synapses", "assay": "Spike-timing-dependent LTP induction (pre-post pairing) in dSPNs, ex vivo slices", "format": "cell-based, mice"}, "[2]": {"system": "dSPN glutamatergic synapses", "assay": "Spike-timing-dependent LTD induction (post-pre pairing) in dSPNs, ex vivo corticostriatal slices, perforated-patch or whole-cell recording", "format": "cell-based, mice", "source_text": "Male C57Bl/6 and FVB mice expressing tdTomato or eGFP under control of either the Drd1 or Drd2 receptor regulatory elements were used. All the mice used for the study were hemizygous for these transgenes. For some experiments, D1-tdTomato BAC mice were crossed with a transgenic line expressing Cre recombinase under control of the ChAT promoter. All mice were 8-10 weeks of age before stereotaxic surgery. Animal use procedures were reviewed and approved by the Northwestern Institutional Animal Care and Use Committee.\nSlices were then transferred to a holding chamber containing aCSF. After an incubation period at 34° C. for 30 min, the slices were then kept in the holding chamber at the room temperature for another 30 min before use.\nIndividual slices were transferred to a recording chamber and were continuously perfused (2-3 ml min^−1) with aCSF for the duration of the experiment. Experiments were performed in the dorsolateral striatum at elevated temperature (30-31° C.).\nAll the recordings were made using a MultiClamp 700 A amplifier, and signals were filtered at 2 kHz and digitized at 10 kHz. Data were excluded when the series resistance changed >20% over the time course of the experiment. […] Capacitance current was continuously monitored during perforation by applying a 5-10 mV pulse from a holding potential of −70 mV. The amplifier bridge circuit was adjusted to compensate for series resistance and continuously monitored during recordings. Electrode capacitance was also compensated. Data were excluded when the input resistance (Ri) changed >20% over the time course of the experiment.\nData analysis was conducted with Igor Pro 6 (Wavemetrics, Lake Oswego, Oreg.) and Clampfit 9 (Molecular Devices). EPSP amplitude was calculated from 50-60 sweeps immediately before the start of induction and 20-30 min after the end of induction. The change in EPSP amplitude was calculated by averaging EPSP values after the induction and normalized to the average baseline EPSP amplitude. Compiled data were expressed as mean±s.e.m. Statistical tests were performed using Excel (Microsoft, Redmond, Wash.) and SigmaStat (Systat, San Jose, Calif.). Non-parametric Mann-Whitney or Wilcoxon tests were used to assess the experiment results, using a probability threshold of 0.05.\nTo determine if M4Rs were modulating synaptic plasticity, a spike-timing-dependent plasticity (STDP) paradigm was used. […] Once identified, neurons were monitored and controlled with perforated-patch recording to preserve intracellular signaling mechanisms and to allow stable, long-term monitoring of synaptic strength (FIG. 1A).\nSynaptic plasticity was induced by pairing local stimulation of glutamatergic afferent fibers with postsynaptic spikes evoked by short bursts of intracellular current injection that were repeated at 5 Hz (FIGS. 1B, 4A)."}, "[3]": {"system": "NMDAR-mediated currents in dSPNs", "assay": "NMDAR-mediated uEPSCs and EPSCs in dSPNs, whole-cell voltage clamp", "format": "cell-based, mice", "details": "muscarine 3 μM; local electrical stimulation", "experimental": "For whole-cell voltage clamp recordings, patch pipettes were loaded with internal recording solution containing (mM): 120 CsMeSO3, 15 CsCl, 8 NaCl, 10 HEPES, 0.2 EGTA, 10 tetraethylammonium Chloride (TEA-Cl), 5 QX-314, 2 Mg-ATP, 0.3 Na-GTP; pH was adjusted to 7.25 with CsOH and osmolarity to ˜305 mOsm l^−1. All the recordings were made using a MultiClamp 700 A amplifier, and signals were filtered at 2 kHz and digitized at 10 kHz. Data were excluded when the series resistance changed >20% over the time course of the experiment. For perforated patch recordings, the internal recording solution comprised (in mM): 125 KMeSO4, 14 KCl, 2 MgCl2, 0.2 EGTA, 10 HEPES; pH was adjusted to 7.25 with NaOH and osmolarity to ˜280 mOsm l^−1. Amphotericin B was used to achieve electrical access through the perforated-patch method (Shen et al., 2007; 2008; herein incorporated by reference in their entireties). Capacitance current was continuously monitored during perforation by applying a 5-10 mV pulse from a holding potential of −70 mV. The amplifier bridge circuit was adjusted to compensate for series resistance and continuously monitored during recordings. Electrode capacitance was also compensated. Data were excluded when the input resistance (Ri) changed >20% over the time course of the experiment.\nGlutamate uncaging was achieved using a Verdi/Mira (Coherent Laser Group, Santa Clara, Calif.) (Plotkin et al., 2014). 5 mM MNI-glutamate was superfused over the slice at 0.4 ml/hr using a syring pump and multi-barreled perfusion manifold (Cell MicroControls, Norfolk, Va.). The perfusion solution was (in mM): 124 NaCl, 3 KCl, 2 CaCl2, 1 NaH2PO4, 26 HEPES and 16.66 glucose, and also contained (in μM): 3 muscarine, 10 serine, 10 NBQX and 10 gabazine, plus or minus: 3 SKF81297 and/or 5 VU10010). Glutamate was uncaged adjacent to individual spines using 1 ms pulses of 720-725 nm light typically 10-20 mW in power at the sample plane. Photolysis power was tuned via a third Pockels cell modulator (Con Optics, Danbury, Conn.) to achieve uEPSCs≤5 pA. uEPSC amplitudes were measured from averaged (3-5 repetitions) traces. All uncaging experiments were performed in 0 mM Mg^2+-containing solutions.\nTo determine the situation in dSPNs, the effect of muscarine and VU10010 on NMDAR-mediated EPSCs evoked by uncaging glutamate on spine heads (uEPSCs) was examined in the presence of SKF81297."}, "L-DOPA-induced AIMs": {"system": "L-DOPA-induced AIMs", "assay": "Abnormal involuntary movement (AIM) scoring in unilateral 6-OHDA lesioned mice with L-DOPA-induced dyskinesia", "format": "in vivo", "experimental": "as §1"}, "[4]": {"system": "phosphorylated ERK1/2 and phosphorylated histone 3", "assay": "Cells immunoreactive for pERK1/2 and pH3 in the dorsolateral striatum of LID mice", "format": "in vivo", "experimental": "as §1"}, "[5]": {"system": "ChIs expressing DREADD hM3D(q)", "assay": "Discharge rate of DREADD hM3D(q)-expressing cholinergic interneurons, cell-attached patches in slices", "format": "cell-based, mice", "source_text": "To determine the importance of endogenous cholinergic signaling in regulating synaptic plasticity, the discharge rate of ChIs was elevated using a Cre-dependent DREADD (Alexander et al., 2009; Armbruster et al., 2007; Ferguson et al., 2011; Kozorovitskiy et al., 2012; herein incorporated by reference in their entireties). Briefly, bi-transgenic mice expressing tdTomato in dSPNs and Cre-recombinase under control of the choline acetyltransferase (ChAT) promoter received striatal stereotaxic injections of an adeno-associated virus (AAV; serotype 2/8) containing the hM3D(q) expression construct (the University of North Carolina Vector Core). Mice were allowed to recover for 5-6 weeks before recordings. To activate the DREADD expressing ChIs, clozapine-N-oxide (CNO) was bath applied to ex vivo brain slice preparations.\nTo address the possibility that in an ex vivo slice preparation at 30-31° C., spontaneous ChI activity is low and could lead to effective enzymatic degradation of ACh near its release site and weak M4R activation, the ACh esterase inhibitor physostigmine (10 μM) was co-applied with the M4R PAM. […] Another way to compensate for lower than normal cholinergic signaling in ex vivo slices is to use designer receptors exclusively activated by designer drugs (DREADDs) to selectively increase ChI discharge rate (Alexander et al., 2009; Armbruster et al., 2007; herein incorporated by reference in their entireties). To this end, bi-transgenic mice expressing tdTomato in dSPNs and Cre-recombinase under control of the choline acetyltransferase (ChAT) promoter received striatal injections of an adeno-associated virus (AAV) containing an hM3D(q) expression construct having an upstream foxed STOP codon; this STOP codon is effectively excised by Cre-recombinase leading to DREADD expression (Ferguson et al., 2011; Kozorovitskiy et al., 2012; herein incorporated by reference in their entireties) (FIG. 2A). […]"}, "[6]": {"details": "VU152100 co-administered with L-DOPA vs L-DOPA"}}, "note": "“Also recorded” adds a separate entry of the source.", "data": [{"compound": "N[C@@H](Cc1ccc(O)c(O)c1)C(=O)O", "note": "[L-DOPA, L-3,4-dihydroxyphenylalanine]", "values": [{"measurement": "plasticity in iSPNs with pre-post pairing protocol", "setting": "iSPN synapses", "result": "induced an LTD"}, {"measurement": "forelimb use asymmetry", "setting": "forelimb use asymmetry; L-DOPA alone", "result": "47.98±2.41"}, {"measurement": "STDP LTP induction in dSPNs", "setting": "[1]; 6-OHDA lesioned mice, slices one hour after last L-DOPA injection", "result": "led to a robust LTP; also recorded: LTP was recovered"}]}, {"compound": "N[C@@H](CCCP(=O)(O)O)C(=O)O", "note": "[APV]", "values": [{"measurement": "LTD induction in dSPNs", "setting": "[2]; APV 50 μM with VU10010 5 μM", "result": "LTD was inducible"}]}, {"compound": "C[C@@H]1O[C@H](C[N+](C)(C)C)C[C@H]1O", "note": "[muscarine]", "values": [{"measurement": "amplitudes of NMDAR-mediated EPSCs", "setting": "[3]", "result": "reduced the amplitudes"}]}, {"compound": "Cc1cccc(C#Cc2ccccc2)n1", "note": "[MPEP]", "values": [{"measurement": "LTD induction in dSPNs", "setting": "[2]; MPEP 10 μM with CCG203769", "result": "prevented the LTD induction; also recorded: LTD was disrupted"}]}, {"compound": "N#CC(=C(/N)Sc1ccccc1N)/C(C#N)=C(\\N)Sc1ccccc1N", "note": "[U0126]", "values": [{"measurement": "STDP LTP induction in dSPNs", "setting": "[1]; U0126 10 μM, dyskinetic (LID) mice", "result": "prevented LTP induction; also recorded: LTP was disrupted"}, {"measurement": "STDP LTP induction in dSPNs", "setting": "[1]; U0126 10 μM, naive mice", "result": "disrupted STDP LTP; also recorded: LTP induction was disrupted"}]}, {"compound": "CCCCn1c(=O)sn(CC)c1=O", "note": "[CCG203769]", "values": [{"measurement": "LTD induction in dSPNs", "setting": "[2]; CCG203769 10 μM intracellular, without VU10010", "result": "enhanced induction of LTD; also recorded: promoted the induction of LTD"}, {"measurement": "LTD induction in dSPNs", "setting": "[2]; CCG203769 with VU+PHY+MT3 (M4R antagonized)", "result": "antagonizing M4Rs had no effect on dSPN LTD"}, {"measurement": "LTD induction in dSPNs", "setting": "[2]; CCG203769 with VU+PHY+MT3 (M4R antagonized), listed as CCG", "result": "enhanced LTD induction"}]}, {"compound": "COc1ccc(CNC(=O)c2sc3nc(C)cc(C)c3c2N)cc1", "note": "[VU152100]", "values": [{"measurement": "forelimb use asymmetry", "setting": "forelimb use asymmetry; L-DOPA+VU152100, p>0.05 vs L-DOPA", "result": "38.6±3.04"}, {"measurement": "effect on anti-parkinsonian action of L-DOPA (forelimb use asymmetry)", "setting": "forelimb use asymmetry; VU152100 co-administered with L-DOPA", "result": "did not occur at the expense of the anti-parkinsonian action of L-DOPA"}, {"measurement": "cumulative AIM scores", "setting": "L-DOPA-induced AIMs; VU152100 60 mg/kg systemic, with L-DOPA", "result": "significantly reduced cumulative AIM scores"}, {"measurement": "anti-dyskinetic effect on doubling the dose", "setting": "L-DOPA-induced AIMs; VU152100 120 mg/kg, with L-DOPA", "result": "did not increase the anti-dyskinetic effect"}, {"measurement": "AIM scores, dose relation", "setting": "L-DOPA-induced AIMs; VU152100 20, 60, 120 mg/kg", "result": "dose-dependent effect"}, {"measurement": "L-DOPA-induced AIM scores", "setting": "L-DOPA-induced AIMs; VU152100 20-120 mg/kg i.p. with L-DOPA, days 6-8", "result": "significantly attenuated"}, {"measurement": "level of phosphorylated ERK (pERK)", "setting": "[4]; VU0152100 60 mg kg-1", "result": "reduced the levels of LID biomarkers"}, {"measurement": "level of phosphorylated histone3 (pH3)", "setting": "[4]; VU0152100 60 mg kg-1", "result": "reduced the levels of LID biomarkers"}, {"measurement": "number of cells immunoreactive for phosphorylated ERK1/2 (pERK1/2)", "setting": "[4]; [6]", "result": "reduced the number of cells; also recorded: reduced expression"}, {"measurement": "number of cells immunoreactive for phosphorylated histone 3 (pH3)", "setting": "[4]; [6]", "result": "reduced the number of cells; also recorded: reduced expression"}]}, {"compound": "CCN1CCCC1CNC(=O)c1cc(S(N)(=O)=O)ccc1OC", "note": "(stereo not drawn) [sulpiride]", "values": [{"measurement": "LTD induction in dSPNs", "setting": "[2]; sulpiride 10 μM with physostigmine 10 μM and VU10010 5 μM", "result": "LTD was induced"}]}, {"compound": "C[N+]1([O-])CCN(C2=Nc3cc(Cl)ccc3Nc3ccccc32)CC1", "note": "[CNO, clozapine-N-oxide]", "values": [{"measurement": "ChI discharge rate, median", "setting": "[5]; CNO 10 μM bath perfusion, n=5", "result": 6.7, "unit": "Hz"}, {"measurement": "ChI discharge rate, range", "setting": "[5]; CNO 10 μM bath perfusion, n=5", "result": "4.2-7.8 Hz"}, {"measurement": "ChI spontaneous discharge rate (in words)", "setting": "[5]; CNO 10 μM, cell-attached patches", "result": "increased ChI spontaneous discharge rate"}, {"measurement": "LTD induction in adjacent dSPNs", "setting": "[2]; CNO 10 μM, elevated ChI activity via DREADD hM3D(q)", "result": "led to a robust LTD"}]}, {"compound": "Cc1c(C(=O)NN2CCCCC2)nn(-c2ccc(Cl)cc2Cl)c1-c1ccc(I)cc1", "note": "[AM251]", "values": [{"measurement": "LTD induction in dSPNs", "setting": "[2]; AM251 2 μM with CNO", "result": "dependent upon endocannabinoid (eCB) CB 1 receptors; also recorded: LTD was blunted"}]}]}
